Patent US5968903A, “Inhibition of H. pylori proliferation” (Biomeasure, Incorporated, priority 1998, dated 1999)
Read-outs that look alike come from different tables or passages of the source. Positions of bridges follow the written chain, without caps; N, C: chain ends. Non-standard residues stand in square brackets, D forms with d. Residues, ends and D or L forms follow the SMILES beside them. *: point of attachment. X1 = O=C(CN1CCN(CCO)CC1)*

What was measured:
human SSTR-3 = human SSTR-3 (Homo sapiens, UniProt P32745); test: Somatostatin receptor binding assay, hSSTR-3
Sequence of human SSTR-3 (P32745 whole entry): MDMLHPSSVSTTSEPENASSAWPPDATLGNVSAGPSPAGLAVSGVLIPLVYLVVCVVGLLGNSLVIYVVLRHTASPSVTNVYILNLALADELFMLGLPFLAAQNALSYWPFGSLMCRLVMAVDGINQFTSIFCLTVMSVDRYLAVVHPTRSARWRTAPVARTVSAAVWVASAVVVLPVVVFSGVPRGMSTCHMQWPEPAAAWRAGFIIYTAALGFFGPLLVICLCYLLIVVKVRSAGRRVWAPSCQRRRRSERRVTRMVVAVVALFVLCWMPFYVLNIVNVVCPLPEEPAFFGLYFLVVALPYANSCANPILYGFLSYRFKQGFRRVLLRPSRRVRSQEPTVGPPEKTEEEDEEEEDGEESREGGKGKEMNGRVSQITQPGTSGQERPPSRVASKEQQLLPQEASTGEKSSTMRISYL

human SSTR-1 = human SSTR-1 (Homo sapiens, UniProt P30872); test: Somatostatin receptor binding assay, hSSTR-1
Sequence of human SSTR-1 (P30872 whole entry): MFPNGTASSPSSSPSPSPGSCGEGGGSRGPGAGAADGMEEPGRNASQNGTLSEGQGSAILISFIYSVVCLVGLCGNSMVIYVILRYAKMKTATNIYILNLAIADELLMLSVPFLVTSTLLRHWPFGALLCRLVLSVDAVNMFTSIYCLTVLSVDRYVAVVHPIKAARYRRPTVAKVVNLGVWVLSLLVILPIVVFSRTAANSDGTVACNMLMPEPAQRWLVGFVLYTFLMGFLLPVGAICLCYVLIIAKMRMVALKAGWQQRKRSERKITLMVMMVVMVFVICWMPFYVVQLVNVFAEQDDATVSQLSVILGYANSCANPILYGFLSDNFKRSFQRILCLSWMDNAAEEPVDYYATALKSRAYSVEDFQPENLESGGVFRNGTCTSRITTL

human SSTR-5 = human SSTR-5 (Homo sapiens, UniProt P35346); test: Somatostatin receptor binding assay, hSSTR-5
Sequence of human SSTR-5 (P35346 whole entry): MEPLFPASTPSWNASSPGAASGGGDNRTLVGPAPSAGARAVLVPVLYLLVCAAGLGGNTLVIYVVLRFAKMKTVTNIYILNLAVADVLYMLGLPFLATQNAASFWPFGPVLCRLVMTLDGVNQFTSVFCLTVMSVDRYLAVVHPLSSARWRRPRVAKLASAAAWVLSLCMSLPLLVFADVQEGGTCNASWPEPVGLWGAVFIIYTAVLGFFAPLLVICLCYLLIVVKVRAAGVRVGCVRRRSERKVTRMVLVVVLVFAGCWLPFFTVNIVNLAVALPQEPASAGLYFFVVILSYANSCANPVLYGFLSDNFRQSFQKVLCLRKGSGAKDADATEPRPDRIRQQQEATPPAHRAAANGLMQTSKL

H. pylori ATCC43504 [1] = test: H. pylori proliferation in Brucella broth, strain ATCC43504; type: cell-based; conditions: for ATCC43504 bacteria number: 10^-11 mol/L, 48 h
human SSTR-2 = human SSTR-2 (Homo sapiens, UniProt P30874); test: Somatostatin receptor binding assay, hSSTR-2
Sequence of human SSTR-2 (P30874 whole entry): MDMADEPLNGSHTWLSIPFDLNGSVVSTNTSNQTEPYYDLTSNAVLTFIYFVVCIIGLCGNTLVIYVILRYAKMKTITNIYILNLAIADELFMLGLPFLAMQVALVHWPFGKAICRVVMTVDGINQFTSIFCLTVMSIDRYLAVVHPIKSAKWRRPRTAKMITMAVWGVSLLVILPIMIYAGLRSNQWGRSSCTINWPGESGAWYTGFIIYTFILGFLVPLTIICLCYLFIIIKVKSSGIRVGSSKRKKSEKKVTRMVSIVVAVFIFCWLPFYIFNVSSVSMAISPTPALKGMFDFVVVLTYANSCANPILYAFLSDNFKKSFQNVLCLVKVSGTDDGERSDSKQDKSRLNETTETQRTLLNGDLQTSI

human SSTR-4 = human SSTR-4 (Homo sapiens, UniProt P31391); test: Somatostatin receptor binding assay, hSSTR-4
Sequence of human SSTR-4 (P31391 whole entry): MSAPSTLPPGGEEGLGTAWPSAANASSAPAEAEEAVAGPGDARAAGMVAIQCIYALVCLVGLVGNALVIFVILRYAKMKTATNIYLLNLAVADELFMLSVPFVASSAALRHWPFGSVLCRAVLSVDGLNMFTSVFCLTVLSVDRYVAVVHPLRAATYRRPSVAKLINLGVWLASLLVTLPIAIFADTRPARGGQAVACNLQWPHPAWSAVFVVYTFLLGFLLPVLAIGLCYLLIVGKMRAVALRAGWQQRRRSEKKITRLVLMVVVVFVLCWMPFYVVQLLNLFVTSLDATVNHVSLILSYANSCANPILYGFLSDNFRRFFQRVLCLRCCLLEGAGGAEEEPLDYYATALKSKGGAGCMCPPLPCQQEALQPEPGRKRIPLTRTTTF

H. pylori ATCC43504 [2] = conditions: ATCC43504, 48 h
[3] = [125I-Tyr11]somatostatin-14, CHO-K1 membranes, read-out: Ki hSSTR-3
[4] = [125I-Tyr11]somatostatin-14, CHO-K1 membranes, read-out: Ki hSSTR-1
[5] = [125I-Tyr11]somatostatin-14, CHO-K1 membranes, read-out: Ki hSSTR-2
[6] = [125I-Tyr11]somatostatin-14, CHO-K1 membranes

C[C@@H](O)[C@@H]1NC(=O)[C@H](CCCCN)NC(=O)[C@@H](Cc2c[nH]c3ccccc23)NC(=O)[C@H](Cc2ccccc2)NC(=O)[C@H](Cc2ccccc2)NC(=O)[C@@H](N)CSSC[C@@H](C(N)=O)NC(=O)[C@H](Cc2ccccc2)NC1=O [Example 107, H-Cys-Phe-Phe-D-Trp-Lys-Thr-Phe-Cys-NH2] (H-CFF[dW]KTFC-NH2; disulfide 1-8 (inferred))
affinity for type 3 (in words) (human SSTR-3): some affinity | affinity for type 1 (in words) (human SSTR-1): some affinity | affinity for type 5 (in words) (human SSTR-5): high affinity | ATCC43504 bacteria number (H. pylori ATCC43504 [1]): 6.5 ± 0.7 ×10^5 CFU/mL

C[C@@H](O)[C@@H]1NC(=O)[C@H](CCCCN)NC(=O)[C@@H](Cc2c[nH]c3ccccc23)NC(=O)[C@H](Cc2ccc(O)cc2)NC(=O)[C@H](Cc2ccccc2)NC(=O)[C@@H](N)CSSC[C@@H](C(N)=O)NC(=O)[C@H](Cc2ccccc2)NC1=O [Example 109, H-Cys-Phe-Tyr-D-Trp-Lys-Thr-Phe-Cys-NH2] (H-CFY[dW]KTFC-NH2; disulfide 1-8 (inferred))
affinity for type 3 (in words) (human SSTR-3): high affinity | Ki (human SSTR-3; [3]): 9.7 nM | Ki (human SSTR-1; [4]): 86.9 nM | affinity for type 2 (in words) (human SSTR-2): high affinity | Ki (human SSTR-2; [5]): 6.19 nM | affinity for type 4 (in words) (human SSTR-4): high affinity | Ki (human SSTR-5; [6]): 0.34 nM | ATCC43504 bacteria number (H. pylori ATCC43504 [1]): 1.4 ± 0.5 ×10^5 CFU/mL

C[C@@H](O)[C@H](NC(=O)[C@H](Cc1ccccc1)NC(=O)[C@@H](NC(=O)[C@H](CCCCN)NC(=O)[C@@H](Cc1c[nH]c2ccccc12)NC(=O)[C@H](Cc1ccccc1)NC(=O)[C@H](Cc1ccccc1)NC(=O)[C@@H](Cc1ccccc1)NC(=O)CN1CCN(CCO)CC1)[C@@H](C)O)C(N)=O [Example 118] (X1-[dF]FF[dW]KTFT-NH2)
Ki (human SSTR-3; read-out: Ki hSSTR-3): 10.9 nM | Ki (human SSTR-1; read-out: Ki hSSTR-1): 47.7 nM | Ki (human SSTR-2; read-out: Ki hSSTR-2): 3.23 nM | Ki (human SSTR-4): 753 nM | Ki (human SSTR-5): 1.01 nM

CC(C)[C@@H]1NC(=O)[C@H](CCCCN)NC(=O)[C@@H](Cc2c[nH]c3ccccc23)NC(=O)[C@H](Cc2ccc(O)cc2)NC(=O)[C@H](C)N(C)C(=O)[C@H](Cc2ccccc2)NC1=O [Example 76, cyclo(N-Me-Ala-Tyr-D-Trp-Lys-Val-Phe)]
affinity for type 2 (in words) (human SSTR-2): high affinity | ATCC43504 bacteria number (H. pylori ATCC43504 [1]): 2.7 ± 1.3 ×10^5 CFU/mL

NCCCC[C@@H]1NC(=O)[C@@H](Cc2c[nH]c3ccccc23)NC(=O)[C@H](Cc2ccccc2)NC(=O)[C@H](Cc2ccccc2)NC(=O)[C@@H](N)CSSC[C@@H](C(N)=O)NC(=O)[C@H](Cc2ccccc2)NC(=O)[C@H](CO)NC1=O [Example 108, H-Cys-Phe-Phe-D-Trp-Lys-Ser-Phe-Cys-NH2] (H-CFF[dW]KSFC-NH2; disulfide 1-8 (inferred))
Ki (human SSTR-3; [3]): 35.6 nM | Ki (human SSTR-1; [4]): 27.9 nM | Ki (human SSTR-2; [5]): 19.3 nM | Ki (human SSTR-5; [6]): 0.85 nM

C[C@@H](O)[C@H](NC(=O)[C@@H]1CSSC[C@H](NC(=O)[C@H](N)Cc2ccc3ccccc3c2)C(=O)N[C@@H](Cc2ccc(O)cc2)C(=O)N[C@H](Cc2c[nH]c3ccccc23)C(=O)N[C@@H](CCCCN)C(=O)N[C@@H]([C@@H](C)O)C(=O)N1)C(N)=O [Example 1, H-D-β-Nal-Cys-Tyr-D-Trp-Lys-Thr-Cys-Thr-NH2]
Ki (human SSTR-3): 97.9 nM | Ki (human SSTR-1): 2410 nM | Ki (human SSTR-2): 0.75 nM

C[C@H](N)C(=O)NCC(=O)N[C@H]1CSSC[C@@H](C(=O)O)NC(=O)[C@H](CO)NC(=O)[C@H]([C@@H](C)O)NC(=O)[C@H](Cc2ccccc2)NC(=O)[C@H]([C@@H](C)O)NC(=O)[C@H](CCCCN)NC(=O)[C@H](Cc2c[nH]c3ccccc23)NC(=O)[C@H](Cc2ccccc2)NC(=O)[C@H](Cc2ccccc2)NC(=O)[C@H](CC(N)=O)NC(=O)[C@H](CCCCN)NC1=O [somatostatin]
NCTC11916 bacteria number (H. pylori NCTC11916): 2.6±0.2 ×10^6 CFU/mL | inhibition of NCTC11916 (H. pylori NCTC11916; NCTC11916, 48 h): 79% | inhibition of H. pylori proliferation by somatostatin (H. pylori ATCC43504 [2]): 88% | NCTC11638 bacteria number (H. pylori NCTC11638): 1.6±0.2 ×10^6 CFU/mL | inhibition of NCTC11638 (H. pylori NCTC11638; NCTC11638, 48 h): 90% | decrease of bacteria number / suppression of ATCC43504 proliferation (H. pylori ATCC43504 [1]): 49% | inhibition of ATCC43504 proliferation (in words) (H. pylori ATCC43504 [1]): inhibited proliferation of ATCC43504 in a dose-dependent manner

C[C@@H](O)[C@H](NC(=O)[C@H](Cc1ccccc1)NC(=O)[C@@H](NC(=O)[C@H](CCCCN)NC(=O)[C@@H](Cc1c[nH]c2ccccc12)NC(=O)[C@H](Cc1ccccc1)NC(=O)[C@H](Cc1ccccc1)NC(=O)[C@H](N)Cc1ccccc1)[C@@H](C)O)C(N)=O [Example 114, H-D-Phe-Phe-Phe-D-Trp-Lys-Thr-Phe-Thr-NH2] (H-[dF]FF[dW]KTFT-NH2)
affinity for type 3 (in words) (human SSTR-3): high affinity | affinity for type 5 (in words) (human SSTR-5): high affinity | ATCC43504 bacteria number (H. pylori ATCC43504 [1]): 9.8 ± 2.0 ×10^5 CFU/mL
